According to US11061016B2, “In vitro model for pathological or physiologic conditions” (HemoShear, LLC, priority 2012, dated 2021):
Read-outs that look alike come from different tables or passages of the source.

Columns and labels:
[1] = test system: cytochrome p450 1A/1B; experiment: Cytochrome p450 activity assay (P450-GLO), 1A/1B
Description: (§3) Porous membrane segments roughly 2 cm^2 in area were excised and transferred to standard 24-well plates alongside corresponding static cultures. The cells were incubated with 500 μl of hepatocyte media containing substrates from commercially available P450-GLO kits (kits for luminescent cytochrome p450 assays) at the manufacturer-recommended concentrations. After 4 hours, the media was transferred to 96-well plates and assayed for luminescent metabolites to reflect cytochrome p450 activity as per the manufacturer protocol.
(§4) After 48 hours, on day 7, segments of the porous membrane from the devices containing hepatocytes cultured under controlled hemodynamics that were roughly 2.0 cm^2 in area were excised and transferred to standard 24-well plates and treated with substrates for the Cyp p450 enzymes in parallel to corresponding static cultures treated with the different agents. Cytochrome p450 assays were done on day 7 using commercially available P450-GLO kits. After 4 hours the media was transferred to 96-well plates and assayed for luminescent metabolites to reflect cytochrome p450 activity.

[2] = test system: primary rat hepatocytes; experiment: Toxicity to hepatocytes under controlled flow during Cyp induction; settings: 50 μM dexamethasone, concentration recommended for static cultures
Description: Cytochrome p450 assays were done on day 7 using commercially available P450-GLO kits. After 4 hours the media was transferred to 96-well plates and assayed for luminescent metabolites to reflect cytochrome p450 activity.

[3] = test system: cytochrome p450 3A; experiment: Cytochrome p450 activity assay (P450-GLO), 3A; assay type: in vitro ADME, rat; settings: controlled hemodynamics; dexamethasone 02.5 μM, 48 hours; DMSO 11.64
Description: as §3, §4

[4] = test system: primary rat hepatocytes; experiment: Gluconeogenesis assay (AMPLEX RED glucose); assay type: cell-based; settings: for Effect (% Change) on glucose levels: insulin 2 nM or glucagon 100 nM; for glucose levels: decreased by (insulin) / increased by (glucagon) / glucose levels: decreased by (insulin) / increased by further (glucagon): insulin 2 nM, glucagon 100 nM; for glucose levels: decreased by (insulin) / increased by further (glucagon): substrate glycerol
[5] = test system: endothelial cells and smooth muscle cells; experiment: Hypertension model gene array analysis; assay type: cell-based; settings: healthy and atheroprone conditions
Description: ANG2 at a concentration of 10 nM (10.46 ng/ml) or a DMSO vehicle control (VEH) was added to the upper volume and RNA was collected for gene array analysis.
Aldosterone at a concentration of 1 mM or a vehicle control (VEH) was added to the upper volume and RNA was collected for gene array analysis

[6] = test system: primary rat hepatocytes; experiment: miRNA122 assay; assay type: cell-based; settings: static conditions; chlorpromazine 1 μM, 4 hours
Description: The hepatocytes were then washed with PBS and incubated with serum free hepatocyte medium with or without known toxic drug chlorpromazine (CPZ) at two different concentrations (1 μM and 10 μM) for 4 hours. Supernatants from the cells were collected and microRNA extraction was performed using the MIRNEASY serum/plasma kit (a kit for extracting microRNA, Qiagen). The cDNA was prepared by using the MISCRIPTII RT kit (a kit for preparing cDNA, Qiagen) and samples quantified using the MISCRIPT SYBR GREEN PCR kit (a kit for quantifying cDNA, Qiagen), following the manufacturer's instructions.
The hepatocytes were washed with PBS and immediately incubated with either vehicle (distilled water) or chlorpromazine (1 μM) for 4 hours. The supernatant was collected and miRNA 122 levels were measured as described above.

[7] = test system: primary human hepatocytes; settings: 72 h
Description: Hepatocytes were then incubated with medium containing 1 mg/ml of MTT reagent (thiazolyl blue tetrazolium bromide) for 1 hour, following which the cells were lysed in DMSO to release the formazan blue dye formed. The solution was transferred to a 96 well plate and the absorbance was read at 595 nm.

[8] = test system: primary human hepatocytes; settings: 1 μM chlorpromazine; controlled hemodynamic conditions relative to static controls
[9] = test system: rat hepatocytes; experiment: RT-PCR of oxidative stress-related and MRP genes; settings: controlled hemodynamic conditions
[10] = test system: primary rat hepatocytes; experiment: Biliary activity stain (CDFDA), canalicular pattern; assay type: cell-based; settings: controlled hemodynamic conditions, 48 hours
Source text: Samples were then washed with PBS and placed on glass slide for confocal imaging.

[11] = test system: endothelial cell/smooth muscle cell co-cultures; experiment: HDL in hemodynamic environment; assay type: cell-based; settings: HDL at 45 μg/ml or 90 μg/ml; hemodynamic shear stress
Description: An additional component of plasma cholesterol distinct from nLDL or oxLDL is HDL. […] HDL was then added to the upper volume at a concentration of 45-1,000 μg/ml. This broad range reflects the broad range of HDL concentrations that can exist within human patients. HDL concentrations in individuals at risk for vascular disease are generally less than about 300 μg/ml, while HDL concentrations in healthy individuals range from greater than about 300 μg/ml up to about 2,000 μg/ml in healthy exercising patients.
In additional experiments, endothelial cell/smooth muscle cell co-cultures plated as described above were preconditioned for 16 hours with hemodynamic shear stress. From hours 16-24 the cells were additionally primed with 0.05 ng/ml TNFα and 50 μg/ml of oxLDL (compared to a vehicle control containing 50 μg/ml nLDL) in the upper volume. At 24 hours, 45 μg/ml or 90 μg/ml HDL was added to the media in the upper volume and hemodynamic shear stress was continued for the next 24 hours (hours 24-48).

[12] = test system: endothelial cells and smooth muscle cells; experiment: oxLDL in hemodynamic environment: gene array, gene, protein and cytokine expression; assay type: cell-based; settings: for number of genes regulated as compared to cells treated with nLDL: atheroprone, 50 μg/ml oxLDL vs 50 μg/ml nLDL
Description: Following 16-24 hours of shear stress preconditioning with atheroprotective or atheroprone hemodynamic forces, oxLDL was added to upper volume (containing the endothelial cells) at a concentration of 10-50 μg/ml (FIG. 5). In devices not receiving oxLDL, nLDL was added to the upper volume at the same concentration and used as a vehicle control. This concentration of oxLDL is similar to plasma concentrations of oxLDL observed in patients with cardiovascular disease. Shear stress application was continued for an additional 24 hours in the presence of oxLDL.
(§1) Five different donor pairs were used to analyze the oxLDL (50 μg/ml) response compared to nLDL (50 μg/ml) within the atheroprone hemodynamic environment in endothelial cells and smooth muscle cells. […] Significant genes were considered using an FDR of 0.01. Gene expression results are reported as the relative expression of the gene as compared to the expression of β-2 microglobulin (B2M). Protein expression results are reported as the relative expression of the protein as compared to the expression of actin. Activity of NFκB was assessed using an adenovirus NFκB-luciferase (Ad-NFκB-luc) reporter infected in ECs and SMCs.

[13] = test system: endothelial cells; experiment: oxLDL and TNFα in hemodynamic environment: RT-PCR gene expression; assay type: cell-based; settings: atheroprone shear stress, 50 μg/ml oxLDL without or with 0.05 ng/ml TNFα
Description: To emulate more inflammatory stages of atherosclerosis, it is desirable to combine multiple circulating factors to better emulate the complexity found within human blood vessels. […] The media in the upper volume was then exchanged for media containing 0.05 ng/ml TNFα and 50 μg/ml of oxLDL. Media containing only 50 μg/ml of nLDL was used as a control.
Following 24 hours of shear stress preconditioning with atheroprotective or atheroprone hemodynamic forces, 50 μg/ml of oxLDL and 0.05 ng/ml of TNFα were added to upper volume (containing the endothelial cells). This concentration of TNFα is similar to plasma concentrations of TNFα observed in patients with cardiovascular disease. In devices not receiving oxLDL, nLDL was added to the upper volume at the same concentration and used as a vehicle control. Shear stress application was continued for an additional 24 hours in the presence of TNF-α and oxLDL (see FIG. 5). Gene expression analysis was performed using RT-PCR.

[14] = test system: NFκB; experiment: NFκB-luciferase reporter (Ad-NFκB-luc); assay type: cell-based; settings: smooth muscle cells; oxLDL added to upper volume only
Description: as §1

[15] = test system: endothelial cells; experiment: TNFα in hemodynamic environment: gene expression; assay type: cell-based; settings: 0.1-1 ng/ml TNFα; atheroprone hemodynamic forces; not seen at same levels in static cultures
Description: Following 24 hours of shear stress preconditioning with atheroprotective or atheroprone hemodynamic forces, TNFα was added to upper volume (containing the endothelial cells) at a concentration of 0.05-1 ng/ml (see FIG. 5). This concentration of TNFα is similar to plasma concentrations of TNFα observed in patients with cardiovascular disease. Shear stress application was continued for an additional 24 hours in the presence of TNFα.

[16] = test system: endothelial and smooth muscle cells; experiment: Expression of genes relevant to thrombosis; assay type: cell-based, Human; settings: TNFα stimulation; both endothelial and smooth muscle cells
Description: (§2) Human endothelial cells were co-cultured with or without smooth muscle cells in the presence or absence of human-derived, region-specific hemodynamics. Endothelial cells were exposed to TNFα at various concentrations and incubated in human, platelet-free plasma supplemented by ALEXA FLUOR 488 (A488, a fluorescent dye)-labeled fibrinogen. Conversion of A488-fibrinogen to A488-fibrin and deposition on the endothelium was quantified by confocal microscopy.
FIG. 2B depicts a heat map of relative gene expression in endothelial and smooth muscle cells (grown under atheroprone or atheroprotective conditions; see FIG. 2A) of several genes relevant to thrombosis. The relative changes in gene expression of Tissue Factor (F3) and Thrombomodulin (THBD) are presented below the heat map. Atheroprone hemodynamics up-regulate Tissue Factor (F3) compared to atheroprotective shear stress. […] In addition, TNFα stimulation reduces Tissue Factor Pathway Inhibitor (TFPI) in both endothelial and smooth muscle cells.

[17] = test system: Endothelial/smooth muscle cell co-cultures; experiment: Coculture thrombosis assay with shear stress, Protocol A (fibrin deposition); assay type: cell-based, Human; settings: atheroprone hemodynamics vs static cultures
Description: as §2
Following 24 hours of shear stress application (atheroprone or atheroprotective), the media was supplemented with TNFα at a concentration of 0.05 ng/mL or 0.10 ng/mL and shear stress was continued for an additional 24 hours, as shown in FIG. 3A. Media was then removed from both the upper and lower chambers, and both the endothelial cells and smooth muscle cells are washed twice with PBS. Endothelial cells were then incubated for 15 minutes at 37° C. with PFP supplemented with 37.5 μg/mL ALEXA-488 human fibrinogen, 20 μg/mL corn trypsin inhibitor, and 10 mM calcium, and fixed and imaged as described above for monocultures.

[18] = No substrate, 4 hours, controlled hemodynamics
[19] = substrate Glycerol (2 mM), 4 hours
[20] = substrate Lactate/Pyruvate (20 mM/2 mM), 4 hours
[21] = substrates lactate and pyruvate
[22] = atheroprone hemodynamic environment

For `Cc1ccc2cc3c(ccc4ccccc43)c3c2c1CC3` [3-MC, 3-Methyl Cholanthrene], the “induction responses seen at lower levels under controlled hemodynamics” value ([1]; controlled hemodynamics (0.1 μM) vs static (1 μM)) was 10 fold and the “1A/1B response (cytochrome p450 activity normalized to ATP content)” value ([1]; controlled hemodynamics, 3-MC 0.1 μM, 48 hours, DMSO 4.87) was 133.06.
In the case of `C[C@@H]1C[C@H]2[C@@H]3CCC4=CC(=O)C=C[C@]4(C)[C@@]3(F)[C@@H](O)C[C@]2(C)[C@@]1(O)C(=O)CO` [Dexamethasone, dexamethasone], the “toxicity in the controlled flow system” value [2] is reported as “toxic” and the “3A response (cytochrome p450 activity normalized to ATP content)” value [3] is reported as 57.53.
`OCC(O)CO` [Glycerol, glycerol] was tested, and the “change in glucose produced with substrate alone” value ([4]; Glycerol 2 mM, no hormone, 4 hours) was “Glycerol (+67%)” and the “glucose produced by the hepatocytes increased by” value ([4]; substrate glycerol (2 mM) alone) was 67%.
`C[C@]12CCC(=O)C=C1CC[C@@H]1[C@@H]2[C@@H](O)C[C@]2(C=O)[C@@H](C(=O)CO)CC[C@@H]12` [aldosterone] was tested, and the “inflammatory genes (gene array)” value ([5]; Aldosterone 1 mM vs vehicle) was “upregulated”.
For `CN(C)CCCN1c2ccccc2Sc2ccc(Cl)cc21` [chlorpromazine], the “miRNA 122 levels in the supernatants compared to vehicle controls” value [6] was “did not cause any change”, the toxicity ([7]; 1 μM) was 30.3% and the toxicity ([7]; 10 μM) was 46.4%. The “upregulation of APEX nuclease gene” value [8] was 2.8 fold, the “upregulation of glutathione reductase (GSR) gene” value [8] was 8.3 fold and the “upregulation of sorbitol dehydrogenase (SORD) gene” value [8] was 6.9 fold. The “upregulation of thioredoxin reductase 1 (TXNRD1) gene” value [8] was 5.5 fold.
`Cc1c(C)c2c(c(C)c1O)CCC(C)(COc1ccc(CC3SC(=O)NC3=O)cc1)O2` (stereo not shown) [troglitazone] was tested, and the “oxidative stress-related genes and MRP3 and MRP4 genes” value [9] was “upregulation”, the “changes in the canalicular pattern (cholestatic changes)” value ([10]; troglitazone 4 uM) was “visibly dilated canalicular structures” and the “changes in the canalicular pattern (cholestatic changes)” value ([10]; troglitazone 40 uM) was “much more prominent and extensive”.
“Angiotensin II (DRVYIHPF; Angiotensin-2; UniProt P01019 25-32, looked up) [ANG2]” was tested, and the “inflammatory genes (gene array)” value ([5]; ANG2 10 nM (10.46 ng/ml) vs DMSO vehicle) was “upregulated”.
In the case of glucagon, the “Effect (% Change) on glucose levels” value [4, 18] is reported as “+51%”, the “glucose levels: decreased by (insulin) / increased by (glucagon)” value ([4]; absence of a substrate) is reported as 51% and the “Effect (% Change) on glucose levels” value [4, 19] is reported as “+15%”. The “Effect (% Change) on glucose levels” value [4, 20] was “+80%”, the “glucose levels: decreased by (insulin) / increased by further (glucagon)” value [4] was 15% and the “glucose levels: decreased by (insulin) / increased by (glucagon)” value [4, 21] was 80%.
In the case of high-density lipoprotein [HDL], the “atheroprotective and pro-inflammatory gene and protein activation” value [11] is reported as “activates many atheroprotective genes while blocking activation of pro-inflammatory genes and proteins”.
With insulin the “Effect (% Change) on glucose levels” value [4, 18] was −27%, the “glucose levels: decreased by (insulin) / increased by (glucagon)” value ([4]; absence of a substrate) was 27% and the “Effect (% Change) on glucose levels” value [4, 19] was −38%. The “Effect (% Change) on glucose levels” value [4, 20] was −25%, the “glucose levels: decreased by (insulin) / increased by further (glucagon)” value [4] was 38% and the “glucose levels: decreased by (insulin) / increased by (glucagon)” value [4, 21] was 25%.
For “oxidized low-density lipoprotein [oxLDL]”, the “atheroprotective signaling (eNOS and KLF2) gene expression” value ([12]; atheroprone conditions) was “reduced”, the “inflammatory genes IL8 and E-Selectin (SELE) expression” value ([12]; atheroprone conditions, not regulated in traditional static cultures) was “activate” and the “levels of secreted cytokines (IL6, IL8, MCP-1)” value [12, 22] was “increased”. The “phosphorylation of atheroprotective eNOS signaling” value [12, 22] was “reduced”, the “number of genes regulated as compared to cells treated with nLDL” value ([12]; endothelial cells, 5 donors) was 688 genes and the “number of genes regulated as compared to cells treated with nLDL” value ([12]; smooth muscle cells, 4 donors) was 304 genes. The “eNOS gene expression (NOS3)” value [13] was “reduced”, the “E-Selectin (SELE) gene expression” value ([13]; control nLDL) was “higher levels” and the “NFκB signaling (luciferase reporter)” value [14] was “elevated”.
In the case of tumor necrosis factor-α [TNFα], the “inflammatory response (expression of E-Selectin, ICAM, VCAM, IL8)” value [15] is reported as “induced an inflammatory response”, the “Tissue Factor Pathway Inhibitor (TFPI) expression” value [16] is reported as “reduces” and the “lower levels of TNFα to induce fibrin deposition as compared to static cultures” value [17] is reported as 100- to 200 fold.
